Measurements from ChEMBL document CHEMBL2385056, “Imidazopyrazine Derivatives As Inhibitors of mTOR” (ACS Med Chem Lett, 2013).

Key:
[1] = Inhibition of mTORC2 in human PC3 cells assessed as reduction of phosphorylated AKT Ser473 level after 90 mins by HTRF assay; assay type: cell-based; settings: PC-3, 1.5 h
mTORC1 = mTORC1 (Homo sapiens, UniProt P42345); assay: Inhibition of mTORC1 in human PC3 cells assessed as reduction of phosphorylated 4E-BP1Thr37/46 level after 90 mins by HTRF assay; assay type: cell-based, PC-3

| Structure (SMILES) | IC50 [1] [nM] | IC50 (mTORC1) [nM] |
| --- | --- | --- |
| Nc1nc([C@@H]2C[C@H]3CC[C@@H](C2)N3C(=O)c2nnc[nH]2)cn2c(-c3ccc(-c4ncc[nH]4)nc3)cnc12 | > 10000 | > 10000 |
| Nc1nc([C@@H]2C[C@H]3CC[C@@H](C2)N3C(=O)c2nnc[nH]2)cn2c(-c3cnn(-c4ccccc4)c3)cnc12 | 1140 | 1860 |
| Nc1nc([C@@H]2C[C@H]3CC[C@@H](C2)N3C(=O)c2nnc[nH]2)cn2c(-c3ccc(-c4ccccc4)nc3)cnc12 | 1 | 100 |

More lines, in order of falling IC50 [1], values ahead:

| IC50 [1] [nM] | IC50 (mTORC1) [nM] | Structure (SMILES) |
| --- | --- | --- |
| 1000 | 1000 | Cn1ccc(-c2ccc(-c3cnc4c(N)nc([C@@H]5C[C@H]6CC[C@@H](C5)N6C(=O)c5nnc[nH]5)cn34)cn2)n1 |
| 100 | 100 | Nc1nc([C@@H]2C[C@H]3CC[C@@H](C2)N3C(=O)CO)cn2c(-c3ccc(-c4ccccc4)nc3)cnc12 |
